Data as given in ChEMBL document CHEMBL1131431, “Enantiospecific semisynthesis of (+)-almuheptolide-A, a novel natural heptolide inhibitor of the mammalian mitochondrial respiratory chain” (J Med Chem, 1998).

Biological target: Mitochondrial complex I; NADH oxidoreductase (Bos taurus, UniProt P25708+P52505)
Experiment: Compound was tested for NADH oxidase activity in bovine heart submitochondrial particles
Type: protein-complex assay

Chain of Mitochondrial complex I; NADH oxidoreductase (P25708 21-464 limits assumed, other chains not shown): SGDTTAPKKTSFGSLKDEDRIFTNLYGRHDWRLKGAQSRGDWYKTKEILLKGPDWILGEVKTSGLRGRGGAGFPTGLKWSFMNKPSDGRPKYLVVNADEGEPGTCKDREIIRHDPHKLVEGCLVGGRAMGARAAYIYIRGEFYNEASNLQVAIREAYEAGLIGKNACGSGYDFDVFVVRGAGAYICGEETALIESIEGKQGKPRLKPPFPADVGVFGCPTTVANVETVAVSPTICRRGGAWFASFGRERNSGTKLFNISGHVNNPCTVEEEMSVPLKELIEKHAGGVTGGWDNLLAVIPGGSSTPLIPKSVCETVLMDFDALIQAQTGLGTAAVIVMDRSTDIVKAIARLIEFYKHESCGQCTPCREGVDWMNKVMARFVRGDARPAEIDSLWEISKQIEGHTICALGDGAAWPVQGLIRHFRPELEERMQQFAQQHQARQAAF

## CCO[C@H]1[C@@H](O)[C@H](O)[C@@H](c2ccccc2)OC(=O)C[C@H]1OCC
  IC50: 4.4 µM

## CCO[C@H]1[C@@H](OC(C)=O)[C@H](OC(C)=O)[C@@H](c2ccccc2)OC(=O)C[C@H]1OCC
  IC50: 3.9 µM
